From a melting point compilation (Tetko et al.; mined from patent text by program, amines drawn as free bases though some values may be those of a salt)

Row | SMILES | melting point
1 | O=C(OCc1ccccc1)N1CCN2C(=O)OCC2C1 (racemic) | 85.5 to 86.5 °C
2 | CCOP(=O)(/C=C/c1cn(-c2ccccc2)nc1OCc1ccc(OCc2nc(-c3ccco3)oc2C)nc1)OCC | 134 to 135 °C
3 | CCOc1ccc(C2=NN(C(=O)c3cccc([N+](=O)[O-])c3)CCC2)cc1OCC | 119 to 120 °C
4 | COc1cc(Nc2c(C#N)cnc3cc(NC(C)=O)c(OC)cc23)c(Cl)cc1Cl | 267 to 270 °C
5 | CN1Cc2c(Cl)cccc2SCC1=O | 122 to 125 °C
6 | CC(C)C[C@@H](C(=O)OC(C)(C)C)N1C(=O)NC(C(F)(F)F)(C(F)(F)F)C1=O | 105 to 106 °C
7 | COc1ccc(OC)c(C(=O)c2cc3ccc(OC)cc3o2)c1 | 129 to 131 °C
8 | CN1Cc2cccnc2C(N2CCN(C(=O)Cc3ccncc3)CC2)c2ccc(Cl)cc21 (stereo not given) | 83 to 87 °C
9 | O=c1[nH]cnc2c1nc(CC1CCN(Cc3ccccc3)CC1)n2Cc1ccc(F)cc1 | 197 °C
10 | Cc1nnn(CC(C)n2nnc3cc4c(=O)n(C5CC5)nnc4cc3c2=O)n1 (stereo not given) | 157 to 160 °C
11 | O=C(O)c1ccc(-n2sc(-c3ccccc3)cc2=O)cc1 | 238 to 240 °C
12 | CCCCCCC(C)(C)c1cc(O)c2c(c1)OCCC1=C2CC(C)CC1 (stereo not given) | 134 to 136 °C
13 | CCCCCc1c(OCc2ccccc2)ccc(C(C)=O)c1O | 61 to 62 °C
14 | CC(=O)Nc1cc(C(C)(C)C)cc(OCc2ccccc2)c1C | 170 to 172 °C
15 | Cc1cc(-n2ccnc2)c2cccc(OCc3c(Cl)ccc(S(=O)(=O)N4CCC[C@H]4C(=O)NCC4CCN(C(=O)c5cccnc5)CC4)c3Cl)c2n1 | 109 °C
16 | CC(=O)N1C(=O)C(C(=O)c2cccnc2)c2ccccc21 (stereo not given) | 141 to 142 °C
17 | COc1cc(C(O)c2ccc(C)cc2)cc(C2OCCCO2)c1OC (stereo not given) | 83 to 84 °C

Row | SMILES | melting point
18 | CC#CCCn1ncc2c(N)c3c(nc21)CN(CCC)C3=O | 178 to 180 °C
19 | CN(C)Cc1ccc(CSCCNC(=O)NCCCN(C)CCN(Cc2ccc(F)cc2)c2ccccn2)o1 | 102 °C
20 | COC(=O)NC1=NC(c2ccc(F)cc2)CCN1 (stereo not given) | 211 to 212 °C
21 | CC(C)(C)OC(=O)N[C@H](Cc1cn(Cc2ccccc2)c2ccccc12)C(=O)O | 164 to 165 °C
22 | CC(C)(C(=O)O)c1ccc(-c2ccc(Cl)cc2)s1 | 146 to 148 °C
23 | COc1ccc(N(C(=O)CN2C(=O)CC(=O)N(c3ccncc3)c3ccccc32)C(C)C)cc1 | 211 to 213 °C
24 | CSc1cc(-c2ccc(Cl)cc2)nc(-c2cccc(Cl)c2)c1 | 98.4 °C
25 | CC(C)(C)NC(=O)c1ccc(Cl)nc1 | 108 to 110 °C
26 | Cc1cc(=O)c(-c2ccc(Oc3ccc(C(F)(F)F)cc3)cc2)c(C)[nH]1 | 258 to 260 °C
27 | CC(C)NC(=O)N1CCc2[nH]cnc2C1c1ccccn1 (stereo not given) | 240 °C
28 | NC(=O)[C@@H]1[C@H](Nc2c(Br)cnc3[nH]c(-c4ccsc4)nc23)[C@H]2C=C[C@@H]1C2 | 238 to 241 °C
29 | Cc1cc(S(=O)(=O)NC(=O)c2cn3cc(C(F)(F)F)cc(Cl)c3n2)c(C)cc1C#N | 228 to 229 °C
30 | CCCSCc1cc2oc(S(N)(=O)=O)cc2cn1 | 171 to 172 °C
31 | O=c1[nH]c(=O)n(C2CC(OCc3cccc4ccccc34)C(CO)O2)cc1F (stereo not given) | 159 to 160 °C
32 | NC(=O)c1cc(C(O)CNCCCn2nnc3ccccc32)ccc1O (stereo not given) | 154 to 155 °C
33 | CCc1nc(Cc2ccc(NC(=O)/C=C/c3cnn(C)c3-c3ccc(F)cc3)cc2)no1 | 150 to 152 °C
34 | OCC(CO)(OCc1ccccc1)c1ccccc1 | 83 to 86 °C

The next lines start with the values.

Row | melting point | SMILES
35 | 148 to 150 °C | C=CCCOc1ccc(C[C@H](NC(=O)OC(C)(C)C)C(=O)O)cc1
36 | 47 to 49 °C | CC(C)(C)c1ccc(C(=O)C(Cl)Cl)cc1
37 | 157 to 159 °C | Cc1ccc(C2(c3ccc(C)cc3)NC(=O)N(CCCN3CCC(C#N)(c4ccccc4)CC3)C2=O)cc1
38 | 144 to 145 °C | O=C(O)C(=O)c1ccc(OCCOc2ccc3ccccc3c2)cc1
39 | 185 to 188 °C | CC(C)(C#N)c1cc(C(C)(C)C#N)cc(C(C)(C)n2cncn2)c1
40 | 112 to 115 °C | O=C(Cl)c1cccnc1Nc1cccc(Cl)c1
41 | 118 to 124 °C | CCOc1ccccc1OCCNC(C)Cc1ccc(OC)c(S(N)(=O)=O)c1 (stereo not given)
42 | 90 to 91 °C | CCCCCCSc1nn2c(=O)cc(-c3ccccc3)nc2s1
43 | 251 to 253 °C | O=C1NC(=O)C2(C(=O)N(Cc3ccc(Cl)c(Cl)c3)c3ccccc32)N1C(=O)c1ccccc1 (stereo not given)
44 | 143 to 144 °C | O=S(=O)(Nc1cccnc1Nc1ccccc1)c1cccc(Cl)c1
45 | 78 °C | CN1CCN(CCOc2ccccc2CC(=O)N2C[C@@H]3C(=O)CCC(c4ccccc4)(c4ccccc4)[C@@H]3C2)CC1 (racemic)
46 | 143 to 147 °C | CS(=O)(=O)c1ccc(-c2ncccc2C(=O)c2ccccn2)cc1
47 | 159 to 161 °C | O=C(Nc1n[nH]c(=S)s1)NC(Cc1ccccc1)C(=O)NCc1ccccn1 (stereo not given)
48 | 156 to 159 °C | CCCCNC(=O)NS(=O)(=O)Cc1ccccc1-c1nnc(SC)o1
49 | 219 to 222 °C | CC1Oc2ccc(Cn3ccnc3)cc2NC1=O (stereo not given)
50 | 139 to 141 °C | COc1ccc(C(=CC#N)c2ccc(OC)c(OC)c2)cc1NC(C)=O
51 | 255 °C | Cc1cc(-c2ccc(C#N)cc2)nc(-c2cccc(-c3cccc(S(N)(=O)=O)c3)n2)n1
52 | 56 to 58 °C | CC(=O)OCC(C)(C)C(Cl)CC(Cl)(Cl)Cl (stereo not given)

Row | melting point | SMILES
53 | 117 to 122 °C | COC(=O)c1ccc(Cl)cc1C1(c2ccccc2F)OCC(CCl)O1 (stereo not given)
54 | > 270 °C | O=S(=O)(O)c1ccc(NCc2ccc(Cl)cc2)cc1
55 | 124 to 125 °C | COC(=O)c1oc2c(sc3ccccc32)c1O
56 | 70 to 72 °C | O=C(CC(=O)C1CC1)c1ccc(S(F)(F)(F)(F)F)cc1
57 | 170 °C | CCCC(Oc1ccc2c(-c3ccc(Cl)cc3)noc2c1)C(=O)O (stereo not given)
58 | 114 to 115 °C | COc1cc(C=CC=O)cc(OC)c1OCc1ccccc1
59 | 213 to 215 °C | N#Cc1ccc(N2CCN(Cc3cnc4c(c3)NC(=O)[C@@H]3CCCN43)CC2)c(Cl)c1
60 | 222 to 224 °C | CCn1cc(C(=O)O)c(=O)c2ccc(C3CCCCC3)cc21
61 | 234 to 236 °C | N#Cc1ccc2c(c1)Sc1ccc([N+](=O)[O-])cc1C=C2
62 | 281 to 283 °C | O=C(O)c1nc2ccc(Oc3ccccc3)cc2cc1OCc1ccccc1
63 | 160 to 162 °C | O=C(O)CC1c2cc([N+](=O)[O-])ccc2CCN1C(=O)OCc1ccccc1 (stereo not given)
64 | 92 °C | CCC(CC)n1nnc2c(Oc3c(C)cc(C)cc3C)nc(C)nc21
65 | 76 to 79 °C | CCCCCN(CCCCC)C(=O)C(CCC(=O)O)CS(=O)(=O)c1ccc(Cl)c(Cl)c1 (stereo not given)
66 | 120 to 122 °C | c1ccc(COc2ccc(CCOc3ccc(CCNc4ncnc5nccnc45)cc3)cc2)cc1
67 | 121 to 123 °C | Oc1ccc(NCCCCCCCBr)cc1
68 | 96 to 97 °C | Cc1cc(CCCCCOc2ccc(-c3nc(C)c(C)s3)cc2)on1
69 | 198 to 199 °C | COc1cc(N)c(Cl)cc1C(=O)NC1CCN(C(=O)OC(C)(C)C)CC1F (stereo not given)
70 | 98 to 100 °C | CC(=O)CN(C(=O)Cc1ccccc1)C(C)(C)c1cccc(Cl)c1
